Laboratory results reported in BigSolDB 2.1.

NC(=O)c1ccccc1N
Settings | solubility (mole fraction)
in THF, 273.15 K | 0.226
in THF, 279.15 K | 0.237
in THF, 283.65 K | 0.245
in THF, 289.15 K | 0.255
in THF, 293.45 K | 0.263
in THF, 299.15 K | 0.275
in THF, 303.35 K | 0.284
in THF, 309.15 K | 0.296
in THF, 313.75 K | 0.31
in THF, 319.15 K | 0.326
in THF, 323.65 K | 0.339
in acetone, 273.15 K | 0.164
in acetone, 279.15 K | 0.181
in acetone, 284.15 K | 0.193
in acetone, 289.15 K | 0.208
in acetone, 293.35 K | 0.223
in acetone, 298.95 K | 0.243
in acetone, 303.35 K | 0.265
in acetone, 308.65 K | 0.292
in acetone, 313.15 K | 0.313
in acetone, 317.15 K | 0.341
in acetone, 324.15 K | 0.386
in acetonitrile, 273.15 K | 0.01
in acetonitrile, 279.15 K | 0.0139
in acetonitrile, 283.65 K | 0.0194
in acetonitrile, 289.15 K | 0.0267
in acetonitrile, 293.45 K | 0.0371
in acetonitrile, 299.15 K | 0.0531
in acetonitrile, 303.35 K | 0.066
in acetonitrile, 309.15 K | 0.0871
in acetonitrile, 313.75 K | 0.111
in acetonitrile, 319.15 K | 0.151
in acetonitrile, 323.65 K | 0.183
in ethanol, 273.15 K | 0.0302
in ethanol, 279.15 K | 0.0356
in ethanol, 284.15 K | 0.04
in ethanol, 289.15 K | 0.0477
in ethanol, 293.35 K | 0.0554
in ethanol, 298.95 K | 0.0648
in ethanol, 303.35 K | 0.0742
in ethanol, 313.15 K | 0.105
in ethanol, 317.15 K | 0.117
in ethanol, 324.15 K | 0.143
in ethyl acetate, 273.15 K | 0.053
in ethyl acetate, 279.15 K | 0.0608
in ethyl acetate, 283.65 K | 0.0684
in ethyl acetate, 289.15 K | 0.0778
in ethyl acetate, 293.45 K | 0.0856
in ethyl acetate, 299.15 K | 0.0977
in ethyl acetate, 303.35 K | 0.108
in ethyl acetate, 309.15 K | 0.123
in ethyl acetate, 313.75 K | 0.134
in ethyl acetate, 319.15 K | 0.154
in ethyl acetate, 323.65 K | 0.169
in isobutanol, 273.15 K | 0.0101
in isobutanol, 279.15 K | 0.013
in isobutanol, 284.15 K | 0.0153
in isobutanol, 289.15 K | 0.0176
in isobutanol, 293.35 K | 0.0211
in isobutanol, 298.95 K | 0.0261
in isobutanol, 303.35 K | 0.0301
in isobutanol, 308.65 K | 0.0369
in isobutanol, 313.15 K | 0.044
in isobutanol, 317.15 K | 0.0504
in isobutanol, 324.15 K | 0.0629
in isopentanol, 273.15 K | 0.0117
in isopentanol, 279.15 K | 0.014
in isopentanol, 283.65 K | 0.0152
in isopentanol, 289.15 K | 0.0181
in isopentanol, 293.25 K | 0.0217
in isopentanol, 298.95 K | 0.0273
in isopentanol, 303.25 K | 0.0312
in isopentanol, 308.15 K | 0.0391
in isopentanol, 313.15 K | 0.0458
in isopentanol, 318.15 K | 0.055
in isopentanol, 323.15 K | 0.0647
in isopropanol, 273.15 K | 0.0145
in isopropanol, 279.15 K | 0.0182
in isopropanol, 284.15 K | 0.0216
in isopropanol, 289.15 K | 0.0253
in isopropanol, 293.35 K | 0.0297
in isopropanol, 298.95 K | 0.0355
in isopropanol, 303.35 K | 0.042
in isopropanol, 308.65 K | 0.0505
in isopropanol, 313.15 K | 0.0593
in isopropanol, 317.15 K | 0.0676
in isopropanol, 324.15 K | 0.0844
in methanol, 273.15 K | 0.05
in methanol, 279.15 K | 0.0604
in methanol, 284.15 K | 0.0684
in methanol, 289.15 K | 0.0798
in methanol, 293.35 K | 0.0905
in methanol, 298.95 K | 0.106
in methanol, 303.35 K | 0.123
in methanol, 308.65 K | 0.148
in methanol, 313.15 K | 0.17
in methanol, 317.15 K | 0.19
in methanol, 324.15 K | 0.229
in methyl acetate, 273.15 K | 0.0644
in methyl acetate, 279.15 K | 0.0723
in methyl acetate, 283.65 K | 0.0797
in methyl acetate, 289.15 K | 0.0892
in methyl acetate, 293.25 K | 0.1
in methyl acetate, 298.95 K | 0.114
in methyl acetate, 303.25 K | 0.127
in methyl acetate, 308.15 K | 0.144
in methyl acetate, 313.15 K | 0.163
in methyl acetate, 318.15 K | 0.186
in methyl acetate, 323.15 K | 0.208
in n-butanol, 273.15 K | 0.0162
in n-butanol, 279.15 K | 0.0198
in n-butanol, 284.15 K | 0.0232
in n-butanol, 289.15 K | 0.0268
in n-butanol, 293.35 K | 0.0312
in n-butanol, 298.95 K | 0.0362
in n-butanol, 303.35 K | 0.0423
in n-butanol, 308.65 K | 0.0492
in n-butanol, 313.15 K | 0.0579
in n-butanol, 317.15 K | 0.065
in n-butanol, 324.15 K | 0.0788
in n-hexanol, 273.15 K | 0.0141
in n-hexanol, 279.15 K | 0.0166
in n-hexanol, 283.65 K | 0.0174
in n-hexanol, 289.15 K | 0.0216
in n-hexanol, 293.25 K | 0.0246
in n-hexanol, 298.95 K | 0.0297
in n-hexanol, 303.25 K | 0.034
in n-hexanol, 308.15 K | 0.0407
in n-hexanol, 313.15 K | 0.0468
in n-hexanol, 318.15 K | 0.0557
in n-hexanol, 323.15 K | 0.0641
in n-octanol, 273.15 K | 0.0143
in n-octanol, 279.15 K | 0.0159
in n-octanol, 283.65 K | 0.0176
in n-octanol, 289.15 K | 0.0206
in n-octanol, 293.25 K | 0.0235
in n-octanol, 298.95 K | 0.0275
in n-octanol, 303.25 K | 0.0316
in n-octanol, 308.15 K | 0.0377
in n-octanol, 313.15 K | 0.0434
in n-octanol, 318.15 K | 0.0505
in n-octanol, 323.15 K | 0.0582
in n-pentanol, 273.15 K | 0.0152
in n-pentanol, 279.15 K | 0.0183
in n-pentanol, 284.15 K | 0.0207
in n-pentanol, 289.15 K | 0.0243
in n-pentanol, 293.35 K | 0.0276
in n-pentanol, 298.95 K | 0.0326
in n-pentanol, 303.35 K | 0.0379
in n-pentanol, 308.65 K | 0.044
in n-pentanol, 313.15 K | 0.0514
in n-pentanol, 317.15 K | 0.0579
in n-pentanol, 324.15 K | 0.0703
in n-propanol, 273.15 K | 0.0193
in n-propanol, 279.15 K | 0.0232
in n-propanol, 284.15 K | 0.027
in n-propanol, 289.15 K | 0.0314
in n-propanol, 293.35 K | 0.0363
in n-propanol, 303.35 K | 0.0513
in n-propanol, 308.65 K | 0.0626
in n-propanol, 313.15 K | 0.0728
in n-propanol, 317.15 K | 0.0842
in n-propanol, 324.15 K | 0.105
